Reference: PubChem BioAssay (NCI)
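Step 1: Grow cells in 96-well plates. Step 2: Expose to compound for 48 hours at 5 concentrations. Step 3: Interpolate endpoints linearly; if unreached, use highest concentration. GI50 is the concentration that inhibits growth by half. TGI marks complete inhibition of growth.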

How the values were obtained:
Test in all cases: growth of human tumour cells (NCI), 48 h
[1] = test system: CCRF-CEM leukemia
[2] = test system: NCI/ADR-RES ovarian
[3] = test system: HOP-62 NSCLC
[4] = test system: ACHN renal
[5] = test system: 786-0 renal
[6] = test system: SNB-19 CNS
[7] = test system: A549 NSCLC
[8] = test system: HS 578T breast
[9] = test system: NCI-H23 lung
[10] = test system: SK-MEL-28 melanoma
[11] = test system: HT29 colon
[12] = test system: SN12C renal
[13] = test system: EKVX NSCLC
[14] = test system: IGROV1 ovarian
[15] = test system: SR leukemia
[16] = test system: UO-31 renal
[17] = test system: SF-539 CNS
[18] = test system: SNB-75 CNS
[19] = test system: SK-OV-3 ovarian
[20] = test system: CAKI-1 renal
[21] = test system: UACC-257 melanoma
[22] = test system: OVCAR-8 ovarian
[23] = test system: LOX IMVI melanoma
[24] = test system: M14 melanoma
[25] = test system: HOP-92 NSCLC
[26] = test system: NCI-H522 lung
[27] = test system: T-47D breast
[28] = test system: HL-60(TB) leukemia
[29] = test system: SF-295 CNS
[30] = test system: HCT-15 colon
[31] = test system: RXF 393 renal
[32] = test system: BT-549 breast
[33] = test system: OVCAR-4 ovarian
[34] = test system: A498 renal
[35] = test system: MCF7 breast
[36] = test system: OVCAR-5 ovarian
[37] = test system: NCI-H460 lung
[38] = test system: NCI-H226 lung
[39] = test system: MDA-MB-435
[40] = test system: SW-620 colon
[41] = test system: MOLT-4 leukemia
[42] = test system: SK-MEL-5 melanoma
[43] = test system: COLO 205 colon
[44] = test system: RPMI-8226 leukemia
[45] = test system: SK-MEL-2 melanoma
[46] = test system: DU-145 prostate
[47] = test system: SF-268 CNS
[48] = test system: K-562 leukemia
[49] = test system: HCT-116 colon
[50] = test system: MDA-MB-231 breast
[51] = test system: UACC-62 melanoma
[52] = test system: OVCAR-3 ovarian
[53] = test system: U251 CNS

For `CCOc1ccc2nc(SCc3nc4n(n3)S(=O)(=O)c3ccccc3N4C)sc2c1`, the GI50 [1] was 64.2 µM, the TGI [1] was over 100 µM and the GI50 [2] was over 100 µM. It also gave a TGI [2] of over 100 µM, a GI50 [3] of 50.8 µM and a TGI [3] of over 100 µM. The GI50 [4] was over 100 µM, the TGI [4] was over 100 µM and the GI50 [5] was over 100 µM. It also gave a TGI [5] of over 100 µM, a GI50 [6] of over 100 µM and a TGI [6] of over 100 µM. It also gave a GI50 [7] of over 100 µM, a TGI [7] of over 100 µM and a GI50 [8] of 45 µM. For the same compound, the TGI [8] was over 100 µM, the GI50 [9] was 57.7 µM and the TGI [9] was over 100 µM. For the same compound, the GI50 [10] was over 100 µM, the TGI [10] was over 100 µM and the GI50 [11] was over 100 µM. It also gave a TGI [11] of over 100 µM, a GI50 [12] of over 100 µM and a TGI [12] of over 100 µM. It also gave a GI50 [13] of over 100 µM, a TGI [13] of over 100 µM and a GI50 [14] of over 100 µM. The TGI [14] was over 100 µM, the GI50 [15] was 51.5 µM and the TGI [15] was over 100 µM. The GI50 [16] was over 100 µM, the TGI [16] was over 100 µM and the GI50 [17] was 53.8 µM. The TGI [17] was over 100 µM, the GI50 [18] was 28.8 µM and the TGI [18] was 83.8 µM. It also gave a GI50 [19] of over 100 µM, a TGI [19] of over 100 µM and a GI50 [20] of over 100 µM. For the same compound, the TGI [20] was over 100 µM, the GI50 [21] was over 100 µM and the TGI [21] was over 100 µM. The GI50 [22] was 73 µM, the TGI [22] was over 100 µM and the GI50 [23] was over 100 µM. For the same compound, the TGI [23] was over 100 µM, the GI50 [24] was over 100 µM and the TGI [24] was over 100 µM. The GI50 [25] was 20.7 µM, the TGI [25] was 58.5 µM and the GI50 [26] was 86.4 µM. The TGI [26] was over 100 µM, the GI50 [27] was 81.6 µM and the TGI [27] was over 100 µM. For the same compound, the GI50 [28] was 82.7 µM, the TGI [28] was over 100 µM and the GI50 [29] was over 100 µM. For the same compound, the TGI [29] was over 100 µM, the GI50 [30] was over 100 µM and the TGI [30] was over 100 µM. For the same compound, the GI50 [31] was 30.1 µM, the TGI [31] was 97.3 µM and the GI50 [32] was 59.3 µM. It also gave a TGI [32] of over 100 µM, a GI50 [33] of over 100 µM and a TGI [33] of over 100 µM. It also gave a GI50 [34] of over 100 µM, a TGI [34] of over 100 µM and a GI50 [35] of over 100 µM. The TGI [35] was over 100 µM, the GI50 [36] was over 100 µM and the TGI [36] was over 100 µM. It also gave a GI50 [37] of over 100 µM, a TGI [37] of over 100 µM and a GI50 [38] of over 100 µM. For the same compound, the TGI [38] was over 100 µM, the GI50 [39] was over 100 µM and the TGI [39] was over 100 µM. It also gave a GI50 [40] of over 100 µM, a TGI [40] of over 100 µM and a GI50 [41] of over 100 µM. For the same compound, the TGI [41] was over 100 µM, the GI50 [42] was over 100 µM and the TGI [42] was over 100 µM. It also gave a GI50 [43] of over 100 µM, a TGI [43] of over 100 µM and a GI50 [44] of 31.5 µM. It also gave a TGI [44] of over 100 µM, a GI50 [45] of over 100 µM and a TGI [45] of over 100 µM. The GI50 [46] was over 100 µM, the TGI [46] was over 100 µM and the GI50 [47] was 57.6 µM. It also gave a TGI [47] of over 100 µM, a GI50 [48] of 71.2 µM and a TGI [48] of over 100 µM. For the same compound, the GI50 [49] was 55.8 µM, the TGI [49] was over 100 µM and the GI50 [50] was 73.1 µM. For the same compound, the TGI [50] was over 100 µM, the GI50 [51] was over 100 µM and the TGI [51] was over 100 µM. It also gave a GI50 [52] of over 100 µM, a TGI [52] of over 100 µM and a GI50 [53] of 68.5 µM. For the same compound, the TGI [53] was over 100 µM.
